Experimental data from patent publication US20260284208A1, “SYSTEM” (Oxford University Innovation Limited, priority 2023, published 2026).

Tested on: library of 8,380 IKZF3 degrons (ZF-eGFP/mCherry reporter) in Jurkat cells
Assay: Pooled library screen (FACS, NGS, limma voom LogFC of positive vs negative read counts)
Type: cell-based, human
Experimental: A library of 8,380 IKZF3 degrons was cloned into pLVX-Sprout to create the eGFP/mCherry protein degradation reporter plasmid pool. A lentivirus pool was then generated using the Lenti-X lentiviral vector production method.
Jurkat cells were transduced at a multiplicity of infection of <0.3 with the lentivirus vector library in order to maximise the number of cells with a single integration. Transductions were carried out in 6 well TC-treated cell culture dishes (Falcon) with 3×10^6 cells per well. Cells were incubated for 2 days at 37° C. and 5% CO2 before the supernatant was removed and replaced with fresh media. 6 days post-transduction, mCherry+ cells were isolated via FACS using the FACS Aria Fusion (BD) in a buffer containing PBS (Gibco), 2 mM EDTA (Gibco), 25 mM HEPES (Sigma) and 1% BSA (Sigma). 8 days later, cells were treated with DMSO or a thalidomide analog for 18 hours at 37° C. and 5% CO2. mCherry+GFPlow and NOT(mCherry+GFPlow) cells were sorted by FACS using the FACS Aria Fusion (BD). DMSO treated cells were used to set the mCherry+GFPlow gate and dead cells were excluded from sorting by staining cells with 1 μg/mL DAPI (ThermoFisher). gDNA was isolated using the Maxwell RSC 48 (Promega). gDNA from cells that were unsorted and untreated were also isolated to determine the library representation on the day of compound treatment. Throughout the screen >600× coverage of the library was maintained. 3 biological replicates were carried out with a new transduction taking place each time.
A two-step PCR was used where the first PCR (PCR1) amplified the integrated degron sequence from gDNA and the second PCR (PCR2) added Illumina adaptors and barcodes to permit multiplexing. See Supp F for PCR1 and PCR2 primers. Q5 Hot Start High-Fidelity 2× Master Mix (New England Biolabs) was used for both PCRs. Sufficient gDNA was amplified in PCR1 in order to maintain >600× coverage and amplicons were purified using solid phase reversible immobilization (SPRI) beads (Beckman Coulter). Purified PCR1 products were analysed on the Tapestation 4200 (Agilent) to confirm purity prior to proceeding to PCR2. Sufficient PCR1 product was amplified in PCR2 in order to maintain >600× coverage and amplicons were run on a 2% agarose TAE gel. Target bands were excised and purified using the NucleoSpin Gel and PCR Clean-up Kit (Machery Nagel). Amplicons were analysed on the Tapestation 4200 and quantified using Qubit dsDNA HS kit (ThermoFisher). PCR products were pooled and sequenced as paired-reads on the NovaSeq (Illumina) using a SP2 200 cycles kit (Illumina).
Count distributions, percentage of read mapping, library coverage and replicate correlation per sample were assessed for QC purposes.
To carry out the library screen, we used the same plasmid construct as in our earlier flow cytometry assays, but pooling all 8,380 mutants together into one Jurkat population, ensuring a copy number of one plasmid per cell (FIG. 4B). […] These GFP-negative cells were then separated from the remaining GFP-positive population using fluorescence activated cell sorting (FACS). These two populations were then sequenced and the relative abundance of every mutant in both populations compared to provide a log FC value for each mutant sequence. This value indicated how frequently a sequence is observed in the GFP-negative population relative to the GFP-positive population, and therefore how effective a degron it is for that particular IMID compound.

Structure (SMILES): CN1CCN(c2ccc3c(c2)C(=O)N(C2CCC(=O)NC2=O)C3=O)CC1 (stereo not drawn) [B08, 2-(2,6-dioxopiperidin-3-yl)-5-(4-methylpiperazin-1-yl)isoindoline-1,3-dione]
- B08_logFC (Degron-ID 3435, SEQ ID NO 2286, 46F_47S_49E_50I_52G_53A_54S_55F_67L): 2.841
- B08_logFC (Degron-ID 3476, SEQ ID NO 2339, 46F_47S_49E_50V_52G_53A_54T_55F_67L): 2.705
- B08_logFC (Degron-ID 3600, SEQ ID NO 2322, 46F_47T_49D_50I_52G_53A_54A_55F_67L): 2.751
- B08_logFC (Degron-ID 3732, SEQ ID NO 2280, 46F_47T_49N_50I_52G_53A_54P_55F_67L): 2.855
- B08_logFC (Degron-ID 3820, SEQ ID NO 2304, 46F_47T_49P_50V_52G_53A_54A_55F_67L): 2.797
- B08_logFC (Degron-ID 3832, SEQ ID NO 2318, 46F_47T_49P_50V_52G_53A_54P_55F_67L): 2.762
- B08_logFC (Degron-ID 3892, SEQ ID NO 2316, 46F_47V_49D_50V_52G_53A_54P_55F_67L): 2.764
- B08_logFC (Degron-ID 3900, SEQ ID NO 2351, 46F_47V_49E_50I_52G_53A_54A_55F_67L): 2.675
- B08_logFC (Degron-ID 3905, SEQ ID NO 2298, 46F_47V_49E_50I_52G_53A_54G_55F_67L): 2.805
- B08_logFC (Degron-ID 3955, SEQ ID NO 2295, 46F_47V_49E_50V_52G_53A_54S_55F_67L): 2.815
- B08_logFC (Degron-ID 4129, SEQ ID NO 2331, 46F_47W_49D_50V_52G_53A_54L_55F_67L): 2.733
- B08_logFC (Degron-ID 4132, SEQ ID NO 2320, 46F_47W_49D_50V_52G_53A_54P_55F_67L): 2.758
- B08_logFC (Degron-ID 4158, SEQ ID NO 2311, 46F_47W_49E_50I_52G_53A_54W_55F_67L): 2.771
- B08_logFC (Degron-ID 4168, SEQ ID NO 2309, 46F_47W_49E_50Q_52G_53A_54K_55F_67L): 2.774
- B08_logFC (Degron-ID 4182, SEQ ID NO 2288, 46F_47W_49E_50V_52G_53A_54D_55F_67L): 2.825
- B08_logFC (Degron-ID 4259, SEQ ID NO 2276, 46F_47W_49N_50V_52G_53A_54Y_55F_67L): 2.879
- B08_logFC (Degron-ID 4262, SEQ ID NO 2312, 46F_47W_49P_50I_52G_53A_54D_55F_67L): 2.769
- B08_logFC (Degron-ID 4269, SEQ ID NO 2299, 46F_47W_49P_50I_52G_53A_54L_55F_67L): 2.805
- B08_logFC (Degron-ID 4294, SEQ ID NO 2296, 46F_47W_49P_50Q_52G_53A_54R_55F_67L): 2.812
- B08_logFC (Degron-ID 4325, SEQ ID NO 2330, 46F_47Y_49D_50I_52G_53A_54G_55F_67L): 2.741
- B08_logFC (Degron-ID 4368, SEQ ID NO 2270, 46F_47Y_49D_50V_52G_53A_54K_55F_67L): 2.897
- B08_logFC (Degron-ID 4374, SEQ ID NO 2335, 46F_47Y_49D_50V_52G_53A_54R_55F_67L): 2.715
- B08_logFC (Degron-ID 4377, SEQ ID NO 2302, 46F_47Y_49D_50V_52G_53A_54V_55F_67L): 2.8
- B08_logFC (Degron-ID 4384, SEQ ID NO 2279, 46F_47Y_49E_50I_52G_53A_54F_55F_67L): 2.859
- B08_logFC (Degron-ID 4400, SEQ ID NO 2269, 46F_47Y_49E_50Q_52G_53A_54A_55F_67L): 2.899
- B08_logFC (Degron-ID 4413, SEQ ID NO 2317, 46F_47Y_49E_50Q_52G_53A_54Q_55F_67L): 2.763
- B08_logFC (Degron-ID 4415, SEQ ID NO 2272, 46F_47Y_49E_50Q_52G_53A_54S_55F_67L): 2.888
- B08_logFC (Degron-ID 4445, SEQ ID NO 2347, 46F_47Y_49N_50I_52G_53A_54G_55F_67L): 2.678
- B08_logFC (Degron-ID 4493, SEQ ID NO 2313, 46F_47Y_49N_50V_52G_53A_54Q_55F_67L): 2.769
- B08_logFC (Degron-ID 4495, SEQ ID NO 2266, 46F_47Y_49N_50V_52G_53A_54S_55F_67L): 2.902
- B08_logFC (Degron-ID 4508, SEQ ID NO 2306, 46F_47Y_49P_50I_52G_53A_54K_55F_67L): 2.789
- B08_logFC (Degron-ID 4509, SEQ ID NO 2274, 46F_47Y_49P_50I_52G_53A_54L_55F_67L): 2.886
- B08_logFC (Degron-ID 4536, SEQ ID NO 2353, 46F_47Y_49P_50Q_52G_53A_54T_55F_67L): 2.667
- B08_logFC (Degron-ID 4543, SEQ ID NO 2292, 46F_47Y_49P_50V_52G_53A_54E_55F_67L): 2.819
- B08_logFC (Degron-ID 4550, SEQ ID NO 2352, 46F_47Y_49P_50V_52G_53A_54M_55F_67L): 2.668
- B08_logFC (Degron-ID 6545, SEQ ID NO 2345, 46L_47F_49P_50I_52G_53F_54G_55C_67L): 2.683
- B08_logFC (Degron-ID 6550, SEQ ID NO 2301, 46L_47F_49P_50I_52G_53F_54M_55C_67L): 2.8
- B08_logFC (Degron-ID 6559, SEQ ID NO 2357, 46L_47F_49P_50I_52G_53F_54Y_55C_67L): 2.661
- B08_logFC (Degron-ID 6755, SEQ ID NO 2278, 46L_47S_49P_50I_52G_53F_54S_55C_67L): 2.86
- B08_logFC (Degron-ID 6775, SEQ ID NO 2332, 46L_47T_49P_50I_52G_53F_54S_55C_67L): 2.73
- B08_logFC (Degron-ID 6795, SEQ ID NO 2300, 46L_47V_49P_50I_52G_53F_54S_55C_67L): 2.801
- B08_logFC (Degron-ID 6824, SEQ ID NO 2285, 46L_47Y_49P_50I_52G_53F_54F_55C_67L): 2.841
- B08_logFC (Degron-ID 6834, SEQ ID NO 2344, 46L_47Y_49P_50I_52G_53F_54R_55C_67L): 2.685
- B08_logFC (Degron-ID 7574, SEQ ID NO 2310, 46F_47W_49E_50I_52G_53R_54R_55F_67L): 2.772
- B08_logFC (Degron-ID 7616, SEQ ID NO 2308, 46L_47A_49E_50I_52G_53F_54T_55C_67L): 2.779
- B08_logFC (Degron-ID 7636, SEQ ID NO 2363, 46L_47C_49E_50I_52G_53F_54T_55C_67L): 2.644
- B08_logFC (Degron-ID 7736, SEQ ID NO 2325, 46L_47H_49E_50I_52G_53F_54T_55C_67L): 2.749
- B08_logFC (Degron-ID 7915, SEQ ID NO 2362, 46L_47T_49E_50I_52G_53F_54S_55C_67L): 2.649
- B08_logFC (Degron-ID 7964, SEQ ID NO 2360, 46L_47Y_49E_50I_52G_53F_54F_55C_67L): 2.653
- B08_logFC (Degron-ID 7971, SEQ ID NO 2297, 46L_47Y_49E_50I_52G_53F_54N_55C_67L): 2.807
- position of the WT sequence in the volcano plot of the library screen (WT ZF sequence): far away from the ‘hits’ region
